Measurements reported in patent US7964643B2, “Aryl alkyl sulfonamides as therapeutic agents for the treatment of bone conditions” (The University Court of the University of Aberdeen, priority 2004, dated 2011).

tested on: J774 macrophage cell line; test: Alamar Blue macrophage J774 viability assay; format: cell-based; conditions: Mus musculus, J774, 72 h, 72 hours culture with compound, Alamar Blue, read-out: IC50 (J774)
Procedure: Initial screening of candidate compounds was performed using viability assays, on cultures of the macrophage cell line J774, which have been used before as a model system for osteoclast survival (see, e.g., Luckman et al., 1998). The assays are based on the survival of the J774 macrophage cell line; macrophages are closely related to osteoclasts, and contain similar high levels of esterase activity.
J774 cells were plated at 10^4 cells per well in 150 μL αMEM (α Modified Eagle Medium) in 96-well plates and grown overnight. The next day, compounds were added to the cultures, and culture was continued for another 72 hours. At the end of the culture period cell survival was determined using an Alamar Blue assay as previously described (see, e.g., Nociari et al., 1998).
Alamar Blue is an oxidation-reduction sensitive indicator. The dye itself is in the oxidised state, which is blue and non-fluorescent. The dye can accept electrons from reducing species, such as NADPH and FADH, to form a reduced dye species, which is red and fluorescent. Thus the transformation from oxidised form to reduced form can be measured by fluorimetric or colourimetric means. For fluorescence measurements, 530-560 nm excitation and 590 nm emission wavelengths are typically used. For colourimetric measurements, absorbance is measured at 570 nm (reduced form) and 600 nm (oxidised form) and a simple calculation performed to determine the relative quantities of the two species.
A high ratio of the reducing species, NADPH and FADH, to the corresponding oxidised species, NADP and FAD, is an indicator that cells are proliferating and viable. A low ratio indicates cells that are quiescent or non-viable.
Briefly, Alamar Blue (Biosource International) was added undiluted to the each well (1:10 v/v, 15 μL). The plate was incubated at 37° C. for 3-4 hours and the fluorescence was measured at 570 nm, with a 25 nm bandwidth. A high reading indicated cells with normal viability, and a low reading indicates cells that have been damaged and are no longer proliferating normally. The controls gave a high fluorescence reading, indicating a high number of live, healthy cells. A potent test compound gave a low fluorescence reading. The average results for each test compound (n=5) were expressed as a percent (%) of the average control value.
Addition of Compounds. All of the compounds studied were made up as 100 mM solutions in DMSO. These stock solutions were then diluted 100 or 1000× in culture medium (αMEM). From these 1 mM or 100 μM solutions, convenient quantities (3-15 μL) were added directly to the wells so as to give the desired final compound concentration.

Compound	IC50 [µM]
O=S(=O)(NCCCCO)c1ccc(-c2ccccc2)cc1 [ABD-155, Biphenyl-4-sulfonic acid-(4-hydroxybutyl)-amide]	18 ± 3
O=S(=O)(NCCCCCO)c1ccc(-c2ccccc2)cc1 [ABD-180, Biphenyl-4-sulfonic acid-(5-hydroxypentyl)-amide]	20 ± 3
O=S(=O)(NCCCCO)c1ccc(-c2ccc(F)cc2)cc1 [ABD-200, 4′-Fluorobiphenyl-4-sulfonic acid-(4-hydroxybutyl)-amide]	8 ± 2.5
O=S(=O)(NCCCCO)c1ccc(-c2ccc(Br)cc2)cc1 [ABD-201, 4′-Bromobiphenyl-4-sulfonic acid-(4-hydroxybutyl)-amide]	9 ± 2
O=[N+]([O-])c1cccc(-c2ccc(S(=O)(=O)NCCCCO)cc2)c1 [ABD-226, 3′-Nitrobiphenyl-4-sulfonic acid-(4-hydroxybutyl)-amide]	33 ± 3
O=[N+]([O-])c1ccccc1-c1ccc(S(=O)(=O)NCCCCO)cc1 [ABD-227, 2′-Nitrobiphenyl-4-sulfonic acid-(4-hydroxybutyl)-amide]	2 ± 0.5
O=S(=O)(NCCCCO)c1ccc(-c2ccc(C(F)(F)F)cc2)cc1 [ABD-246, 4′-Trifluoromethylbiphenyl-4-sulfonic acid-(4-hydroxybutyl)-amide]	5 ± 1
O=S(=O)(NCCCCCO)c1ccc(-c2ccc(F)cc2F)cc1 [ABD-248, 2′,4′-Difluorobiphenyl-4-sulfonic acid-(5-hydroxypentyl)-amide]	4.5 ± 1
O=S(=O)(NCCCCCO)c1ccc(-c2ccc(F)c(F)c2)cc1 [ABD-257, 3′,4′-Difluorobiphenyl-4-sulfonic acid-(5-hydroxypentyl)-amide]	16 ± 3
CSc1ccc(-c2ccc(S(=O)(=O)NCCCCO)cc2)cc1 [ABD-258, 4′-Methylthiobiphenyl-4-sulfonic acid-(4-hydroxybutyl)-amide]	35 ± 6
Cc1ccc(-c2ccc(S(=O)(=O)NCCCCCO)cc2)cc1 [ABD-260, 4′-Methylbiphenyl-4-sulfonic acid-(5-hydroxypentyl)-amide]	12 ± 2
CC(=O)c1ccc(-c2ccc(S(=O)(=O)NCCCCCO)cc2)cc1 [ABD-261, 4′-Acetylbiphenyl-4-sulfonic acid-(5-hydroxypentyl)-amide]	11 ± 2
N#Cc1ccc(-c2ccc(S(=O)(=O)NCCCCCO)cc2)cc1 [ABD-262, 4′-Cyanobiphenyl-4-sulfonic acid-(5-hydroxypentyl)-amide]	12 ± 2
Nc1ccccc1-c1ccc(S(=O)(=O)NCCCCO)cc1 [ABD-263, 2′-Aminobiphenyl-4-sulfonic acid-(4-hydroxybutyl)-amide]	24 ± 3
O=S(=O)(NCCCCO)c1ccc(-c2ccc(Br)cc2F)cc1 [ABD-265, 4′-Bromo-2′-fluorobiphenyl-4-sulfonic acid-(4-hydroxybutyl)-amide]	3 ± 1
COc1ccccc1-c1ccc(S(=O)(=O)NCCCCCO)cc1 [ABD-267, 2′-Methoxybiphenyl-4-sulfonic acid-(5-hydroxypentyl)-amide]	31 ± 4

Compound	IC50 [µM]
O=C(O)c1ccc(-c2ccc(S(=O)(=O)NCCCCCO)cc2)cc1 [ABD-271, 4′-Carboxybiphenyl-4-sulfonic acid-(5-hydroxypentyl)-amide]	33 ± 3
O=S(=O)(NCCCCO)c1ccc(-c2ccccc2I)cc1 [ABD-275, 2′-Iodobiphenyl-4-sulfonic acid-(4-hydroxybutyl)-amide]	5.5 ± 1.5
CN(C)c1ccc(-c2ccc(S(=O)(=O)NCCCCCO)cc2)cc1 [ABD-276, 4′-Dimethylaminobiphenyl-4-sulfonic acid-(5-hydroxypentyl)-amide]	32 ± 3
O=S(=O)(NCCCCCO)c1ccc(-c2ccc(O)cc2)cc1 [ABD-277, 4′-Hydroxybiphenyl-4-sulfonic acid-(5-hydroxypentyl)-amide]	21 ± 3
O=S(=O)(NCCCCCO)c1ccc(-c2ccc(-c3ccccc3)cc2)cc1 [ABD-279, p-Terphenyl-4-sulfonic acid-(5-hydroxypentyl)-amide]	33 ± 5
O=S(=O)(NCCCCCO)c1ccc(-c2ccccc2C(F)(F)F)cc1 [ABD-284, 2′-Trifluoromethylbiphenyl-4-sulfonic acid-(5-hydroxypentyl)-amide]	6 ± 1.5
O=S(=O)(NCCCCO)c1ccc(-c2ccc(C(F)(F)F)cc2)c(F)c1 [ABD-294, 2-Fluoro-4′-trifluoromethylbiphenyl-4-sulfonic acid-(4-hydroxybutyl)-amide]	5 ± 1
CCOc1ccc(-c2ccc(S(=O)(=O)NCCCCCO)cc2)cc1 [ABD-297, 4′-Ethoxybiphenyl-4-sulfonic acid-(5-hydroxypentyl)-amide]	35 ± 5
O=S(=O)(NCCCCO)c1ccc(-c2ccc(C(F)(F)F)cc2)cc1F [ABD-302, 3-Fluoro-4′-trifluoromethylbiphenyl-4-sulfonic acid-(4-hydroxybutyl)-amide]	5.5 ± 1.5
O=S(=O)(NCCCCO)c1ccc(-c2ccc(OC(F)(F)F)cc2)cc1 [ABD-306, 4′-Trifluoromethoxybiphenyl-4-sulfonic acid-(4-hydroxybutyl)-amide]	8 ± 1
Cc1cccc(-c2ccc(S(=O)(=O)NCCCCO)cc2)c1 [ABD-308, 3′-Methylbiphenyl-4-sulfonic acid-(4-hydroxybutyl)-amide]	28 ± 3
O=S(=O)(NCCCCO)c1ccc(-c2ccccc2)cc1C(F)(F)F [ABD-310, 3-Trifluoromethylbiphenyl-4-sulfonic acid-(4-hydroxybutyl)-amide]	4.5 ± 1
Cc1cc(S(=O)(=O)NCCCCO)ccc1-c1ccc(F)cc1 [ABD-320, 4′-Fluoro-2-methylbiphenyl-4-sulfonic acid-(4-hydroxybutyl)-amide]	2.5 ± 0.2
O=S(=O)(NCCCCO)c1ccc(-c2ccc(F)cc2F)cc1Cl [ABD-325, 3-Chloro-2′,4′-difluoro-biphenyl-4-sulfonic acid-(4-hydroxybutyl)-amide]	2.5 ± 0.5
O=S(=O)(NCCCCO)c1ccc(-c2ccc(F)cc2F)cc1OC(F)(F)F [ABD-360, 2′,4′-Difluoro-3-trifluoromethoxybiphenyl-4-sulfonic acid-(4-hydroxybutyl)-amide]	1 ± 0.3
O=[N+]([O-])c1ccccc1-c1ccc(S(=O)(=O)NCCCCO)c(C(F)(F)F)c1 [ABD-365, 2′-Nitro-3-trifluoromethylbiphenyl-4-sulfonic acid-(4-hydroxybutyl)-amide]	0.3 ± 0.1

same assay, conditions: Mus musculus, J774, 72 h, after 72 hours exposure, FIG. 1, read-out: IC50 against J774 macrophages (FIG. 1)

Compound	IC50 [µM]
O=S(=O)(NCCCCO)c1ccc(-c2ccccc2)cc1 [ABD-155, Biphenyl-4-sulfonic acid-(4-hydroxybutyl)-amide]	< 20

tested on: osteoblasts; test: Alamar Blue mouse osteoblast assay; format: cell-based; conditions: osteoblast survival, after 72 hours exposure, FIG. 1, read-out: IC50 against osteoblasts (FIG. 1)
Procedure: Osteoblasts were isolated as described above and plated at 10^4 cells/well in 96-well plates in 100 μL of […]MEM supplemented with 10% FCS and antibiotics. Test compounds were added after 24 hours and left for 72 hours. Cell viability was assessed using the Alamar Blue assay as described for J774 macrophages. Alamar Blue (Biosource International) was added undiluted to each well (1:10 v/v, 10 μL). The plate was incubated at 37° C. for 3 to 4 hours and the fluorescence was measured at 570 nm, with a 25 nm bandwidth.
Osteoblast Isolation. Briefly, osteoblasts were isolated from the calvarial bones of 2-day-old mice by sequential collagenase digestion (type I collagenase, Sigma) and cultured in αMEM supplemented with 10% FCS (foetal calf serum) and penicillin and streptomycin at 37° C. in 5% CO2.
More specifically, osteoblasts were obtained from a collagenase digestion of the calvaria (skull bones) of 2-3 day old neo-natal C57/bl6 mice. At this stage in their development these are soft and easily removed. The calvaria from 5-6 mice were carefully dissected and washed in HBSS (Hank's balanced saline solution). The calvaria were placed in a 15 mL tube and shaken at 37° C. in 4 mL collagenase (10 mg/ml) for 10 minutes. This removes the excess unwanted tissue. The liquid was disposed of and a further 4 mL collagenase (10 mg/ml) added to the tube. […]

Compound	IC50 [µM]
O=S(=O)(NCCCCO)c1ccc(-c2ccccc2)cc1 [ABD-155, Biphenyl-4-sulfonic acid-(4-hydroxybutyl)-amide]	> 100
